Source: patent US10322111B2, “Chemokine receptor binding heterocyclic compounds with enhanced efficacy” (Genzyme Corporation, priority 2001, dated 2019)
Read-outs that look alike come from different tables or passages of the source.

Test system: CFU-GM, BFU-E and CFU-GEMM progenitor cells
Details: 80 μg/kg s.c.

c1cc(CN2CCCNCCNCCCNCC2)ccc1CN1CCCNCCNCCCNCC1 [AMD3100, 1,1′-[1,4-phenylene-bis(methylene)]-bis-1,4,8,11-tetraazacyclotetradecane]
Absolute # of Progenitors per ML, BFU-E (P1, T = 1 h after injection): 674 per ML | Absolute # of Progenitors per ML, CFU-GEMM (P1, T = 1 h after injection): 264 per ML | Absolute # of Progenitors per ML, CFU-GM (P1, T = 1 h after injection): 1259 per ML | fold change from T=0, progenitors BFU-E, methylcellulose culture (P1, T = 1 h after injection): 2.58 fold | fold change from T=0, progenitors CFU-GEMM, methylcellulose culture (P1, T = 1 h after injection): 2.07 fold | fold change from T=0, progenitors CFU-GM, methylcellulose culture (P1, T = 1 h after injection): 5.09 fold | Absolute # of Progenitors per ML, BFU-E (P1, T = 3 h after injection): 1340 per ML | Absolute # of Progenitors per ML, CFU-GEMM (P1, T = 3 h after injection): 540 per ML | Absolute # of Progenitors per ML, CFU-GM (P1, T = 3 h after injection): 1760 per ML | fold change from T=0, progenitors BFU-E, methylcellulose culture (P1, T = 3 h after injection): 5.13 fold | fold change from T=0, progenitors CFU-GEMM, methylcellulose culture (P1, T = 3 h after injection): 4.25 fold | fold change from T=0, progenitors CFU-GM, methylcellulose culture (P1, T = 3 h after injection): 7.12 fold | Absolute # of Progenitors per ML, BFU-E (P1, T = 6 h after injection): 2388 per ML | Absolute # of Progenitors per ML, CFU-GEMM (P1, T = 6 h after injection): 949 per ML | Absolute # of Progenitors per ML, CFU-GM (P1, T = 6 h after injection): 3624 per ML | fold change from T=0, progenitors BFU-E, methylcellulose culture (P1, T = 6 h after injection): 9.14 fold | fold change from T=0, progenitors CFU-GEMM, methylcellulose culture (P1, T = 6 h after injection): 7.47 fold | fold change from T=0, progenitors CFU-GM, methylcellulose culture (P1, T = 6 h after injection): 14.66 fold | Absolute # of Progenitors per ML, BFU-E (P1, T = 9 h after injection): 1418 per ML | Absolute # of Progenitors per ML, CFU-GEMM (P1, T = 9 h after injection): 335 per ML | Absolute # of Progenitors per ML, CFU-GM (P1, T = 9 h after injection): 1547 per ML | fold change from T=0, progenitors BFU-E, methylcellulose culture (P1, T = 9 h after injection): 5.43 fold | fold change from T=0, progenitors CFU-GEMM, methylcellulose culture (P1, T = 9 h after injection): 2.64 fold | fold change from T=0, progenitors CFU-GM, methylcellulose culture (P1, T = 9 h after injection): 6.26 fold | Absolute # of Progenitors per ML, BFU-E (P1, T = 24 h after injection): 278 per ML | Absolute # of Progenitors per ML, CFU-GEMM (P1, T = 24 h after injection): 142 per ML | Absolute # of Progenitors per ML, CFU-GM (P1, T = 24 h after injection): 271 per ML | fold change from T=0, progenitors BFU-E, methylcellulose culture (P1, T = 24 h after injection): 1.06 fold | fold change from T=0, progenitors CFU-GEMM, methylcellulose culture (P1, T = 24 h after injection): 1.12 fold | fold change from T=0, progenitors CFU-GM, methylcellulose culture (P1, T = 24 h after injection): 1.10 fold | Absolute # of Progenitors per ML, BFU-E (P2, T = 1 h after injection): 608 per ML | Absolute # of Progenitors per ML, CFU-GEMM (P2, T = 1 h after injection): 272 per ML | Absolute # of Progenitors per ML, CFU-GM (P2, T = 1 h after injection): 1455 per ML | fold change from T=0, progenitors BFU-E, methylcellulose culture (P2, T = 1 h after injection): 1.48 fold | fold change from T=0, progenitors CFU-GEMM, methylcellulose culture (P2, T = 1 h after injection): 2.26 fold | fold change from T=0, progenitors CFU-GM, methylcellulose culture (P2, T = 1 h after injection): 5.33 fold | Absolute # of Progenitors per ML, BFU-E (P2, T = 3 h after injection): 809 per ML | Absolute # of Progenitors per ML, CFU-GEMM (P2, T = 3 h after injection): 418 per ML | Absolute # of Progenitors per ML, CFU-GM (P2, T = 3 h after injection): 4646 per ML | fold change from T=0, progenitors BFU-E, methylcellulose culture (P2, T = 3 h after injection): 1.98 fold | fold change from T=0, progenitors CFU-GEMM, methylcellulose culture (P2, T = 3 h after injection): 3.47 fold | fold change from T=0, progenitors CFU-GM, methylcellulose culture (P2, T = 3 h after injection): 17.02 fold | Absolute # of Progenitors per ML, BFU-E (P2, T = 6 h after injection): 1502 per ML | Absolute # of Progenitors per ML, CFU-GEMM (P2, T = 6 h after injection): 1126 per ML | Absolute # of Progenitors per ML, CFU-GM (P2, T = 6 h after injection): 6540 per ML | fold change from T=0, progenitors BFU-E, methylcellulose culture (P2, T = 6 h after injection): 3.67 fold | fold change from T=0, progenitors CFU-GEMM, methylcellulose culture (P2, T = 6 h after injection): 9.35 fold | fold change from T=0, progenitors CFU-GM, methylcellulose culture (P2, T = 6 h after injection): 23.96 fold | Absolute # of Progenitors per ML, BFU-E (P2, T = 9 h after injection): 1886 per ML | Absolute # of Progenitors per ML, CFU-GEMM (P2, T = 9 h after injection): 854 per ML | Absolute # of Progenitors per ML, CFU-GM (P2, T = 9 h after injection): 3416 per ML | fold change from T=0, progenitors BFU-E, methylcellulose culture (P2, T = 9 h after injection): 4.61 fold | fold change from T=0, progenitors CFU-GEMM, methylcellulose culture (P2, T = 9 h after injection): 7.09 fold | fold change from T=0, progenitors CFU-GM, methylcellulose culture (P2, T = 9 h after injection): 12.51 fold | Absolute # of Progenitors per ML, BFU-E (P2, T = 24 h after injection): 768 per ML | Absolute # of Progenitors per ML, CFU-GEMM (P2, T = 24 h after injection): 316 per ML | Absolute # of Progenitors per ML, CFU-GM (P2, T = 24 h after injection): 521 per ML | fold change from T=0, progenitors BFU-E, methylcellulose culture (P2, T = 24 h after injection): 1.88 fold | fold change from T=0, progenitors CFU-GEMM, methylcellulose culture (P2, T = 24 h after injection): 2.62 fold | fold change from T=0, progenitors CFU-GM, methylcellulose culture (P2, T = 24 h after injection): 1.91 fold | Absolute # of Progenitors per ML, BFU-E (P3, T = 1 h after injection): 806 per ML | Absolute # of Progenitors per ML, CFU-GEMM (P3, T = 1 h after injection): 312 per ML | Absolute # of Progenitors per ML, CFU-GM (P3, T = 1 h after injection): 1040 per ML | fold change from T=0, progenitors BFU-E, methylcellulose culture (P3, T = 1 h after injection): 2.30 fold | fold change from T=0, progenitors CFU-GEMM, methylcellulose culture (P3, T = 1 h after injection): 2.22 fold | fold change from T=0, progenitors CFU-GM, methylcellulose culture (P3, T = 1 h after injection): 3.70 fold | Absolute # of Progenitors per ML, BFU-E (P3, T = 3 h after injection): 915 per ML | Absolute # of Progenitors per ML, CFU-GEMM (P3, T = 3 h after injection): 610 per ML | Absolute # of Progenitors per ML, CFU-GM (P3, T = 3 h after injection): 4233 per ML | fold change from T=0, progenitors BFU-E, methylcellulose culture (P3, T = 3 h after injection): 2.61 fold | fold change from T=0, progenitors CFU-GEMM, methylcellulose culture (P3, T = 3 h after injection): 4.34 fold | fold change from T=0, progenitors CFU-GM, methylcellulose culture (P3, T = 3 h after injection): 15.07 fold | Absolute # of Progenitors per ML, BFU-E (P3, T = 6 h after injection): 1593 per ML | Absolute # of Progenitors per ML, CFU-GEMM (P3, T = 6 h after injection): 916 per ML | Absolute # of Progenitors per ML, CFU-GM (P3, T = 6 h after injection): 5895 per ML | fold change from T=0, progenitors BFU-E, methylcellulose culture (P3, T = 6 h after injection): 4.54 fold | fold change from T=0, progenitors CFU-GEMM, methylcellulose culture (P3, T = 6 h after injection): 6.52 fold | fold change from T=0, progenitors CFU-GM, methylcellulose culture (P3, T = 6 h after injection): 20.99 fold | Absolute # of Progenitors per ML, BFU-E (P3, T = 9 h after injection): 1302 per ML | Absolute # of Progenitors per ML, CFU-GEMM (P3, T = 9 h after injection): 347 per ML | Absolute # of Progenitors per ML, CFU-GM (P3, T = 9 h after injection): 2647 per ML | fold change from T=0, progenitors BFU-E, methylcellulose culture (P3, T = 9 h after injection): 3.71 fold | fold change from T=0, progenitors CFU-GEMM, methylcellulose culture (P3, T = 9 h after injection): 2.47 fold | fold change from T=0, progenitors CFU-GM, methylcellulose culture (P3, T = 9 h after injection): 9.42 fold | Absolute # of Progenitors per ML, BFU-E (P3, T = 24 h after injection): 402 per ML | Absolute # of Progenitors per ML, CFU-GEMM (P3, T = 24 h after injection): 97 per ML | Absolute # of Progenitors per ML, CFU-GM (P3, T = 24 h after injection): 402 per ML | fold change from T=0, progenitors BFU-E, methylcellulose culture (P3, T = 24 h after injection): 1.14 fold | fold change from T=0, progenitors CFU-GEMM, methylcellulose culture (P3, T = 24 h after injection): 0.69 fold
